Measurements from patent publication US20170183318A1, “AMIDE COMPOUNDS, METHODS FOR PREPARATION, AND USE THEREOF AS AGENTS FOR THE TREATMENT AND PREVENTION OF DISEASES CAUSED BY RNA- AND/OR DNA-CONTAINING VIRUSES, AND CONCOMITANT DISEASES” (OBSCHESTVO S OGRANICHENNOI OTVETSTVENNOSTIYU …, priority 2014, published 2017).

Legend:
[1] = tested on: Staphylococcus aureus; assay: Murine model of staphylococcal pneumonia (bacterial growth from lung imprints); assay type: in vivo, outbred mice; conditions: reference drug, intravenously, single dose of 20 mg/kg; lung imprints; control 82.5
Description: The efficiency of the compounds was evaluated in outbred mice (females) infected with Staphylococcus aureus (mouse-adapted strain). The administration of the compounds was started 5 days before infection, orally at doses of 15 and 30 mg/kg in a volume of 0.2 mL. On day 5, the mice were infected intranasally under brief ether anesthesia by administration of Staphylococcus aureus at a dose of 10^9 CFU in a volume of 0.05 mL. One hour after infection, the administration of the compounds to the mice was continued at the above-indicated doses for additional 2 days. The reference drug was ampicillin administered intravenously at a single dose of 20 mg/kg. The control was mice infected with Staphylococcus aureus intranasally and treated with PBS. The mice were sacrificed two days after, the breast was dissected, and lung imprints were made in Petri dishes with Columbia agar. After incubation for 24 hours at 30° C., the presence (or absence) of Staphylococcus aureus bacterial growth was fixed in comparison with the control. The intensity of bacterial growth was evaluated in scores and expressed in %.

[2] = Solubility in water noted for the isolated product; assay type: physicochemical; conditions: qualitative remark on the isolated product
[3] = tested on: Coxsackie A2 virus (strain HCXV A2); assay: Antiviral activity against Coxsackie virus in vivo (mortality and life expectancy of infected mice)
Description: In the study a trypsin-dependent strain HCXV A2 was used, previously adapted and causing death in mice from Coxsackie virus infection.
The experiment was carried out in white mice weighing 6 to 7 g. The animals were infected intramuscularly with a dose of 0.1 mL/mouse. The used infectious dose causing mortality in mice was 10LD50.
The ability of compounds to provide a therapeutic effect was determined by the mortality rate of HCXV A2 virus-infected mice in the experimental group relative to the group of untreated animals.
The studied compounds and placebo were administered orally according to the treatment regimen. Normal saline solution was administered to mice as placebo. Intact animals served as a negative control and were hold in a separate room under the same conditions as the experimental animals.
For the experiment, groups were formed with 14-15 animals each. Compounds were administered at a dose of 30 mg/kg of body weight. The studied compounds were administered orally once daily for 7 days (first administration was made 24 hours after infection). The animals were monitored for 15 days during which the animals were weighed and the mortality rate was registered every day.

[4] = tested on: herpes simplex virus belonging to antigenic type 2; assay: Murine model of experimental herpetic meningoencephalitis (mortality); assay type: in vivo, white outbred mice; conditions: Mus musculus, po, 336 h
Description: In the study, herpes simplex virus belonging to antigenic type 2 was used. White outbred mice weighing 7-8 g were infected i/c (intracerebrally) in a volume of 0.05 ml/mouse comprising a dose of 10LD50. The infectious dose of the virus that caused 100% mortality in mice was 10LD50. Each experimental group comprised 20 mice. Intact animals served as control and were hold in a separate room under the same conditions as the experimental animals. The antiviral activity of the compounds of general formula I was studied by oral administration of the compounds to infected mice once daily at a dose of 30 mg/kg/mouse 24, 48, 72, 96, and 120 hours after infection of the animals with the virus. The mice of the control group were administered placebo (0.2 mL of physiological solution) under the same conditions. The animals were monitored for 14 days after infection by registration the mouse death in the groups.
Each animal was subjected to once-daily observation. The observation included the assessment of general behavior and body condition of animals. The animals were handled according to the International Standards.
The activity of the compounds was evaluated by comparing mortality rates in the groups of animals administered a preparation and placebo.

[5] = Rat model of nasopharyngitis induced by formalin (nasal mucosa changes, cell elements in nasal lavage); assay type: in vivo; conditions: Wistar rats, 18 mg/kg for 3 days
Description: Nasopharyngitis was induced by intranasal administration of formalin to each nasal passage of rats.
The administration of formalin to the nasal passages of rats leads to the dissemination of inflammation to adjacent tissues, resulting in a clinical pattern similar to the symptoms of nasopharyngitis in a human.
After an acclimatization period, the following groups were formed: • intact animals administered intragastrically a physiological solution in an amount of 0.2 ml, without induction of nasopharyngitis; • a control group consisted of animals administered intragastrically a physiological solution in an amount of 0.2 ml for 3 days after induction of nasopharyngitis; and • animals administered the studied compounds at a dose of 18 mg/kg for 3 days after induction of nasopharyngitis.
Clinical observation of each animal was performed every day at least twice daily.
The caused pathology was characterized by hyperplasia, increased number of caliciform cells, pronounced infiltration of mononuclear cells and leucocytes, and mucus hyperproduction by submucosal glands.
After euthanasia, the inflammation pattern in the nasal passages and throat was studied in each group of animals. The nasal passages were washed with 5 mL of physiological solution and the score of cell elements were counted in 1 μL.

In the case of `CC1(C)S[C@@H]2[C@H](NC(=O)[C@H](N)c3ccccc3)C(=O)N2[C@H]1C(=O)O` [Ampicillin, ampicillin, reference compound], the “Bacterial growth, in %” value [1] is reported as 25 (sporadic colonies (up to 10)).

With `CC(C)(CCC(=O)O)C(=O)NCCc1cnc[nH]1` [Compound 45] the Solubility in water [2] was “freely soluble in water”.

For `O=C(O)CCC(O)C(=O)NCCc1cnc[nH]1` (stereo not drawn) [Compound 67], the Solubility in water [2] was “freely soluble in water”, the inhibition in vivo at 30 mg/kg ([3]; Mus musculus, po, 168 h, 30 mg/kg orally once daily for 7 days, vs virus control, read-out: Protective index (%)) was 50% and the mortality at 30 mg/kg ([3]; Mus musculus, po, 360 h, read-out: Total mortality, %) was 35.7%. The “Average life expectancy (days), Compared with control” value ([3]; difference vs virus control, 30 mg/kg orally once daily for 7 days) was “+16.2 days” and the “Average life expectancy (days), Relative” value ([3]; mice infected with 10LD50 HCXV A2, 30 mg/kg orally once daily for 7 days) was 27.0 days.

With `O=C(O)CCCNC(=O)CCc1cnc[nH]1` [Compound 68] the mortality at 30 mg/kg [4] was 30%, the “Mucous membrane of nasal passages: Without changes (number of animals)” value ([5]; number of animals out of n = 10, control 0 of 20) was 3 and the “Mucous membrane of nasal passages: Discharge mucus from the nasal passages (number of animals)” value ([5]; number of animals out of n = 10, control 20 of 20) was 7. The Solubility in water [2] was “freely soluble in water”.

With `NS(=O)(=O)CCC(=O)NCCc1c[nH]cn1` [Compound 145] the Solubility in water [2] was “freely soluble in water”.
